For orientation: logP means the decadic logarithm of the partition coefficient of the neutral form, usually between octanol and water. What is called Papp is the rate of passage across a membrane or cell layer, normalised by area and donor concentration.

For 1 compound, logP and Papp results are on record in ChEMBL document CHEMBL4261507, “Pyrazolo[3,4-d]pyrimidines as sigma-1 receptor ligands for the treatment of pain. Part 1: 4-acylamino derivatives” (Medchemcomm, 2017).

A short description of data set [1]: Lipophilicity, log P of the compound. In kind it is physicochemical. The conditions noted are these: octanol/water.
Data set [2] is described as follows: Apparent permeability in human Caco2 cells. In kind it is ADME, cell-based. The note with it: Caco-2.

In turn, `CC(C)(C)C(=O)Nc1ncnc2c1cnn2CCN1CCCCC1` had a logP in data set [1] of 2.6. Also, the Papp in data set [2] was found to be 39 ×10⁻⁶ cm/s.
